From patent US5500430A, “Amidic derivatives of glutamic, aspartic and 2-amino adipic acids, a process for preparing same, and anti-gastrin composition containing the derivatives” (Rotta Research Laboratorium S.p.A., priority 1990, dated 1996) come the findings set out here.

Where two headings read alike, the source gives them in different places.

Data set [1] in a line: Acute intravenous toxicity in rats (LD50). To be noted: rat, in vivo. From the text:
The activity of these compounds against gastric secretion is linked specifically to their antigastrin activity.

Data set [2] deals with gastric acid secretion induced by pentagastrin. Nature of the data set: Antisecretive activity in conscious dogs carrying gastric fistulae. In kind it is in vivo, dogs (beagles). The following applies: for ED50: Canis lupus familiaris, iv, read-out: ID50 (the source's name). How it is done:
Antisecretive activity in conscious dogs
Male beagles weighing about 10 Kg were used and carried gastric fistulae at the level of the greater curvature, connected near the antral region, steel cannulae 5 cm long and 2 cm wide being inserted for collecting the gastric juices externally. After a period of about one month to recover from the operation, and after suitable conditioning, the animals were treated with pentagastrin at a dose of 3 mcg/Kg/h. The Stimulant, dissolved in a physiological solution, was perfused into the femoral vein for 180 minutes at a rate of 1.9 ml/h. After perfusion for 60 minutes (the basal stimulation) the product under test, dissolved in a physiological solution (1 ml/Kg), was administered in a bolus into the contra-lateral vein and, at the same time, the perfusion of the stimulant continued for a further 120 minutes. The acid secretion was recorded continuously as a function of time.
The activity of the product was evaluated as the percentage reduction in the secreted acidity after the administration of the product compared with the base acidity measured during the first 60 minutes of collection during which only the pentagastrin was present, for each of the periods 0-60 and 60-120 minutes after the product had been administered in a bolus.
Different doses of the compounds (C-1 and C-5) tested were administered so that an ID50, that is the dose (in mg/Kg I.V.) capable of inhibiting the effect of the pentagastrin by 50% could be calculated.
The results obtained are given in the following table (Tab. 2) in which the % variations from the base (the mean ± standard deviations calculated on the values obtained from 4 animals) are given for the various doses administered under the stimulus of 3 mcg/Kg/h of pentagastrin, as well as the activities of the compounds, calculated as their ID50s, and the correlation coefficients of the regression lines calculated on the basis of the experimental data.

For data set [3], the target named is T1, gastrin receptor sites on the cerebral cortex membranes of mice (Mus musculus, UniProt P56481).
T1 construct: Mouse cortical tissue; from tissue; host or cells: mouse cerebral cortex membranes
T1 sequence (P56481 1-453): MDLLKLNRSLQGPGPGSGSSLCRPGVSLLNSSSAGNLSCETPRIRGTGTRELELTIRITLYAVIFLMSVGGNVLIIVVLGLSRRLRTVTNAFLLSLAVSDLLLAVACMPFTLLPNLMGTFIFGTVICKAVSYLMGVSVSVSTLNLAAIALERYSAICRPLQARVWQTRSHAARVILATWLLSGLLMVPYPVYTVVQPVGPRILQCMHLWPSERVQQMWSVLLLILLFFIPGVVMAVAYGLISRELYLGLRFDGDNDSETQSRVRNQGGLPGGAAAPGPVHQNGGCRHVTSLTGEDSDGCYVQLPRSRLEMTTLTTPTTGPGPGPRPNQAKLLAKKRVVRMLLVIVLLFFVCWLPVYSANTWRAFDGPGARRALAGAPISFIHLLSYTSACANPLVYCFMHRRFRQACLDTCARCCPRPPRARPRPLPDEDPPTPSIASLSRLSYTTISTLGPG
Nature of the data set: Inhibition of the binding of pentagastrin to mouse cortical membranes. The text has this:
Tests on binding to cerebral cortex membranes of mice
The capacities of some of the compounds of the invention to inhibit the binding of pentagastrin to the gastrin receptor sites on the cerebral cortex membranes of mice was to be evaluated. Pentagastrin tritiate[beta-alanyl-3-3H(N)] was used as the ligand.
Mouse cortical tissue Was homogenised cold in 20 volumes of tris buffer (pH 7.7). After washing and centrifuging, the final pellet was resuspended in 20 volumes of binding buffer containing, inter alia, TRIS, BSA and Bacitracin. 0.4 ml of the membrane thus obtained were then incubated with a radioactive tracer and the compounds under test for 40 minutes at 37° C.
After the supernatant liquid had been removed by centrifuging, the radioactivity associated with the pellet was determined with a liquid scintillator (a beta-counter). The specific binding was the difference between the binding in the absence and in the presence of 10^-5M pentagastrin.

Data set [4] deals with guinea-pig gall bladder contracted with CCK-8. Nature of the data set: Anticholecystokinin (anti-CCK) activity on guinea-pig gall bladders stimulated by CCK-8 in vitro. To be noted: CCK-8 concentration 10 ng/ml, Krebs, 32° C. On the procedure:
Anticholecystokinin (anti-cc, K) activity
In order to confirm the hypothesis that the molecular conformations of the compounds of the invention are suitable to provide them with antagonistic activity towards CCK as well as towards gastrin, the anticontracturant activities of some of the compounds of the invention were tested on guinea-pig gall bladders stimulated by CCK-8 in vitro.
A longitudinal strip of guinea-pig gall bladder was placed in a bath for isolated organs in the presence of Krebs at a temperature of 32° C. and oxygenated continuously with an oxygen-CO2 mixture (95-5 V/V).
The isometric contractions were detected by means of a force transducer and recorded.
The gall bladder was contracted with the use of a concentration of 10 ng/ml of CCK-8; the antagonistic activities of the compounds towards the contracturant effect of the CCK was determined with the use of different concentrations, thus determining the IC50 values, that is, the concentration of the compound in mcg/ml which can antagonise the contracturant effect of CCK by 50%.

In data set [1], `O=C(O)CC[C@@H](NC(=O)c1cc(Cl)cc(Cl)c1)C(=O)N1CCC2(CCCC2)CC1` [Compound C5] yielded an LD50 of around 400 mg/kg. Besides, the selectivity ratio in data set [1] was around 25. Further, the “Variation % (Mean ± SD) from base (0-60 min)” value in data set [2] (5 mg/Kg I.V., period 60-120 min) was -36.0 ± 16.3%; in data set [2] (5 mg/Kg I.V., period 120-180 min) it was -20.5 ± 13.1%; in data set [2] (10 mg/Kg I.V., period 60-120 min) it was -59.5 ± 5.0%; in data set [2] (10 mg/Kg I.V., period 120-180 min) it was -31.9 ± 1.3%; in data set [2] (30 mg/Kg I.V., period 60-120 min), -67.8 ± 4.8%; in data set [2] (30 mg/Kg I.V., period 120-180 min), -48.1 ± 1.7%. The ED50 is 8.9 mg/kg in data set [2] (1 h, conscious dogs, I.V. bolus, period 60-120 min (first hour after administration)) and 32.5 mg/kg in data set [2] (2 h, conscious dogs, I.V. bolus, period 120-180 min (second hour after administration)). The compound also gave an ID50 in data set [2] (conscious dogs, I.V. bolus, period 60-120 min (first hour after administration), 60 min) of around 10 mg/kg. Further, the “Inhibition of gastric acid secretion induced by pentagastrin in dogs (in words)” value in data set [2] (conscious dogs, first hour after bolus) was “potent inhibitors of gastric acid secretion induced by pentagastrin in dogs”. In data set [3] (pentagastrin tritiate ligand, 40 minutes at 37° C., read-out: IC50, inhibition of the binding of pentagastrin), the half-maximal inhibitory concentration (IC50) turned out to be 0.11 µM. Further, in data set [3] (vs C-30), the “Activity on the central receptor relative to C-30” value is “three times less active”. The “Anti-CCK activity IC50” value in data set [4] was found to be 34.8 mg/L.
